Experimental data published in the NIST ThermoML archive (doi:10.1016/j.jct.2004.06.004).

Tests used:
[1] = Liquid
[2] = xn = mol fraction of the nth substance listed; conditions: 101.3 kPa, Liquid

NCCO [2-aminoethan-1-ol]
Conditions | mass density [kg/m3]
[1], 293.15 K, 101.33 kPa, Pycnometric method | 1012.1

[1], 101.3 kPa
Conditions | viscosity [mPa·s]
298.15 K | 18.91
303.15 K | 14.71
308.15 K | 11.82
313.15 K | 9.27
318.15 K | 7.52
323.15 K | 6.21

NCCO [2-aminoethan-1-ol] + O
viscosity [mPa·s], [2]
Conditions | x1 = 0.03219 | x1 = 0.06969 | x1 = 0.1138 | x1 = 0.1666 | x1 = 0.2306 | x1 = 0.3102 | x1 = 0.4116 | x1 = 0.5452 | x1 = 0.7296 | x1 = 1
303.15 K | 1.081 | 1.448 | 2.041 | 2.93 | 4.28 | 6.27 | 9.25 | 12.42 | 14.56 | 14.71
308.15 K | 0.962 | 1.282 | 1.784 | 2.513 | 3.61 | 5.23 | 7.3 | 9.75 | 11.62 | 11.82
313.15 K | 0.865 | 1.149 | 1.536 | 2.085 | 2.932 | 4.23 | 5.88 | 7.82 | 9.26 | 9.27
318.15 K | 0.779 | 1.01 | 1.345 | 1.786 | 2.472 | 3.51 | 4.92 | 6.53 | 7.57 | 7.52
323.15 K | 0.703 | 0.907 | 1.173 | 1.553 | 2.125 | 2.925 | 3.95 | 5.24 | 6.06 | 6.21

CCOCCO [2-ethoxyethan-1-ol]
[1]
Conditions | mass density, 293.15 K [kg/m3] | viscosity, 293.15 K [mPa·s] | viscosity, 303.15 K [mPa·s] | viscosity, 308.15 K [mPa·s] | viscosity, 313.15 K [mPa·s] | viscosity, 318.15 K [mPa·s] | viscosity, 323.15 K [mPa·s]
101.3 kPa | – | 2.077 | 1.612 | 1.413 | 1.24 | 1.166 | 1.026
101.33 kPa | 929.7 | – | – | – | – | – | –

CCOCCO [2-ethoxyethan-1-ol] + O
viscosity [mPa·s], [2]
Conditions | x1 = 0.0201 | x1 = 0.04419 | x1 = 0.07339 | x1 = 0.1098 | x1 = 0.1561 | x1 = 0.2172 | x1 = 0.3015 | x1 = 0.4252 | x1 = 0.6247 | x1 = 1
303.15 K | 1.046 | 1.384 | 1.709 | 2.135 | 2.516 | 2.711 | 2.858 | 2.747 | 2.266 | 1.612
308.15 K | 0.924 | 1.177 | 1.472 | 1.769 | 2.057 | 2.248 | 2.329 | 2.2 | 1.951 | 1.413
313.15 K | 0.814 | 1.008 | 1.238 | 1.499 | 1.711 | 1.864 | 1.947 | 1.867 | 1.676 | 1.24
318.15 K | 0.71 | 0.898 | 1.108 | 1.322 | 1.521 | 1.663 | 1.723 | 1.632 | 1.516 | 1.166
323.15 K | 0.651 | 0.791 | 0.958 | 1.164 | 1.339 | 1.45 | 1.55 | 1.486 | 1.361 | 1.026

COCCO [2-methoxyethan-1-ol]
[1]
Conditions | mass density, 293.15 K [kg/m3] | viscosity, 293.15 K [mPa·s] | viscosity, 303.15 K [mPa·s] | viscosity, 308.15 K [mPa·s] | viscosity, 313.15 K [mPa·s] | viscosity, 318.15 K [mPa·s] | viscosity, 323.15 K [mPa·s]
101.3 kPa | – | 1.991 | 1.375 | 1.126 | 0.942 | 0.832 | 0.757
101.33 kPa | 965.2 | – | – | – | – | – | –

Conditions | viscosity [mPa·s]
[1], 293.15 K, 101.33 kPa, Capillary tube (Ostwald / Ubbelohde) method | 1.991

COCCO [2-methoxyethan-1-ol] + O
viscosity [mPa·s], [2]
Conditions | x1 = 0.0247 | x1 = 0.05399 | x1 = 0.08909 | x1 = 0.1321 | x1 = 0.1858 | x1 = 0.2551 | x1 = 0.3475 | x1 = 0.4773 | x1 = 0.6726 | x1 = 1
303.15 K | 1.08 | 1.353 | 1.656 | 1.979 | 2.247 | 2.396 | 2.418 | 2.296 | 1.825 | 1.375
308.15 K | 0.953 | 1.165 | 1.459 | 1.652 | 1.888 | 2.016 | 2.051 | 1.941 | 1.528 | 1.126
313.15 K | 0.811 | 0.985 | 1.205 | 1.367 | 1.529 | 1.668 | 1.733 | 1.6 | 1.323 | 0.942
318.15 K | 0.735 | 0.885 | 1.031 | 1.176 | 1.368 | 1.457 | 1.53 | 1.41 | 1.133 | 0.832
323.15 K | 0.667 | 0.796 | 0.926 | 1.056 | 1.226 | 1.322 | 1.381 | 1.258 | 1.05 | 0.757

O [water] + CCOCCO
[2], x2 = 0
Conditions | viscosity [mPa·s]
303.15 K | 0.7975
308.15 K | 0.7195
313.15 K | 0.6532
318.15 K | 0.5963
323.15 K | 0.5471

O [water] + COCCO
[2], x2 = 0
Conditions | viscosity [mPa·s]
303.15 K | 0.7975
308.15 K | 0.7195
313.15 K | 0.6532
318.15 K | 0.5963
323.15 K | 0.5471

O [water] + NCCO
[2], x2 = 0
Conditions | viscosity [mPa·s]
303.15 K | 0.7975
308.15 K | 0.7195
313.15 K | 0.6532
318.15 K | 0.5963
323.15 K | 0.5471
